# In patent US20150322094A1, “USE OF SUBSTITUTED 2,3-DIHYDRO-1-BENZOFURAN-4-CARBOXYLIC ACIDS OR SALTS THEREOF AS ACTIVE SUBSTANCES AGAINST ABIOTIC PLANT STRESS” (Bayer CropScience AG, priority 2012, published 2015):
# Assays:
# Type in all cases: in vivo
# [1] = system: ZEAMX (Zea mays); experiment: Drought stress, spray application, greenhouse pot test; settings: average of one to three independent trials
# Method: (§1) Seeds of monocotyledonous and dicotyledonous crop plants were laid out in sandy loam in wood-fiber pots, covered with soil or sand and cultivated in a greenhouse under good growth conditions. The test plants were treated at the early leaf stage (BBCH10-BBCH13). To assure uniform water supply before commencement of stress, the potted plants were supplied with water by dam irrigation prior to substance application. The inventive compounds, formulated in the form of wettable powders (WP), were sprayed onto the green parts of the plants as an aqueous suspension at an equivalent water application rate of 600 l/ha with addition of 0.2% wetting agent (e.g. agrotin). Substance application was followed immediately by stress treatment of the plants. For this purpose, the pots were transferred into plastic inserts in order to prevent them from subsequently drying out too quickly.
# (§2) Drought stress was induced by gradual drying out under the following conditions:
# (§3) “Day”: 14 hours with illumination at 26° C.
# (§4) “Night”: 10 hours without illumination at 18° C.
# (§5) The duration of the respective stress phases was guided mainly by the state of the untreated, stressed control plants and thus varied from crop to crop. It was ended (by re-irrigating and transfer to a greenhouse with good growth conditions) as soon as irreversible damage was observed on the untreated, stressed control plants. In the case of dicotyledonous crops, for example oilseed rape and soya, the duration of the drought stress phase varied between 3 and 6 days, in the case of monocotyledonous crops, for example wheat, barley or corn, between 6 and 11 days.
# (§6) The end of the stress phase was followed by an approx. 5-7-day recovery phase, during which the plants were once again kept under good growth conditions in a greenhouse.
# (§7) In order to rule out any influence of the effects observed by any fungicidal or insecticidal action of the test compounds, it was additionally ensured that the tests proceeded without fungal infection or insect infestation.
# (§8) After the recovery phase had ended, the intensities of damage were analysed in visual comparison to untreated, unstressed controls for the same age. The intensity of damage was first recorded as a percentage (100%=plants have died, 0%=like control plants). These values were then used to calculate the efficacy of the test compounds (=percentage reduction in the intensity of damage as a result of substance application) by the following formula: […]
# (§9) DVus: damage value of the untreated, stressed control
# (§10) DVts: damage value of the plants treated with test compound
# (§11) In each trial, 3 pots per crop and dosage were treated and evaluated; the resulting efficacies are thus averages. The values in tables A-1, A-2 and A-3 below are again averages from one to three independent trials.
# [2] = system: BRSNS (Brassica napus); experiment: as above; settings: evaluated after recovery phase
# Method: as §1, §2, §3, §4, §5, §6, §7, §8, §9, §10, §11
# [3] = system: TRZAS (Triticum aestivum); experiment: as above; settings: average of one to three independent trials
# Method: as §1, §2, §3, §4, §5, §6, §7, §8, §9, §10, §11
# [4] = system: ZEAMX (Zea mays); experiment: Cold stress, spray application, climate-controlled chamber test; settings: averages from one to three independent trials
# Excerpt: (§12) Seeds of monocotyledonous and dicotyledonous crop plants were laid out in sandy loam in plastic pots, covered with soil or sand and cultivated in a greenhouse under good growth conditions until the early leaf stage (BBCH12). The trial plants were then likewise treated at the early leaf stage. To assure uniform water supply before commencement of stress, the potted plants were supplied with water by dam irrigation prior to substance application. The inventive compounds, formulated in the form of wettable powders (WP), were sprayed onto the green parts of the plants as an aqueous suspension at an equivalent water application rate of 300 I/ha with addition of 0.2% wetting agent (e.g. agrotin). Substance application was followed immediately by stress treatment of the plants. For this purpose, the plants in question were transferred into a climate-controlled chamber and, after a wait period of 24 h, subjected to a cold stress profile with the following conditions: • 1) “Morning” warm-up phase from 2 to 16° C. for 5 hours • 2) “Day” at 16° C. for 6 hours • 3) “Evening” cool-down phase from 16 to 2° C. for 7 hours • 4) “Night” at 2° C. for 6 hours
# (§13) Over the entire trial period, both the stressed trial plants and the control plants were supplied with the same amount of water which enabled good growth under control conditions. For this purpose, the unstressed control plants which served as a comparison were kept in a greenhouse under good growth conditions and observing the following conditions: • 1) “Day”: 14 hours with illumination at 22° C. • 2) “Night”: 10 hours without illumination at 12° C.
# (§14) After a period of two weeks of the cold stress profile, the stress phase was ended, and there followed a recovery phase of about three weeks, during which the plants were once again kept in a greenhouse under good growth conditions. In order to rule out any influence of the effects observed by any fungicidal or insecticidal action of the test compounds, it was additionally ensured that the tests proceeded without fungal infection or insect infestation.
# as §8, §9, §10
# (§15) In each trial, 8 pots per crop and dosage were treated and evaluated; the resulting efficacies are therefore averages. The values in tables B-1 and B-2 below are again averages from one to three independent trials.
# [5] = system: TRZAS (Triticum aestivum); experiment: as above; settings: averages from one to three independent trials
# Excerpt: as §12, §13, §14, §8, §9, §10, §15
Compound,"EF (ZEAMX): efficacy, percentage reduction in the intensity of damage ([1]; dosage 25 g/ha) [%]","EF (TRZAS): efficacy, percentage reduction in the intensity of damage ([3]; dosage 25 g/ha) [%]",EF (BRSNS): efficacy = percentage reduction in the intensity of damage ([2]; dosage 2.5 g/ha) [%],further results
COC(=O)c1c(O)ccc2c1CC(c1ccc(OC(C)(C)C)cc1)O2 (centres unmarked) [I.1-32],>5,>5,,EF (BRSNS): efficacy = percentage reduction in the intensity of damage ([2]; dosage 25 g/ha): >5%
COC(=O)c1c(O)ccc2c1CC(c1ccc(Oc3ccccc3)cc1)O2 (centres unmarked) [I.1-41],>5,,>5,"EF (ZEAMX): efficacy, percentage reduction in the intensity of damage ([4]; dosage 6.25 g/ha): >5%; EF (TRZAS): efficacy, percentage reduction in the intensity of damage ([5]; dosage 6.25 g/ha): >5%"
COC(=O)c1c(OC(C)=O)ccc2c1CC(c1ccc(OC)cc1)O2 (centres unmarked) [I.5-4],,,>5,
COC(=O)c1c(O)ccc2c1CC(c1cccc(OC)c1)O2 (centres unmarked) [I.1-3],,,,"EF (TRZAS): efficacy, percentage reduction in the intensity of damage ([3]; dosage 250 g/ha): >5%"
"COC(=O)c1c(O)ccc2c1CC(c1ccc(OC)cc1)O2 (centres unmarked) [I.1-4, Methyl 2-(4-methoxyphenyl)-5-hydroxy-2,3-dihydro-1-benzofuran-4-carboxylate]",,,,"EF (ZEAMX): efficacy, percentage reduction in the intensity of damage ([4]; dosage 25 g/ha): >5%; EF (ZEAMX): efficacy, percentage reduction in the intensity of damage ([1]; dosage 100 g/ha): >5%; EF (BRSNS): efficacy = percentage reduction in the intensity of damage ([2]; dosage 100 g/ha): >5%"
CCOC(=O)c1c(O)ccc2c1CC(c1ccc(OC)cc1)O2 (centres unmarked) [I.4-4],>5,>5,>5,"EF (ZEAMX): efficacy, percentage reduction in the intensity of damage ([4]; dosage 6.25 g/ha): >5%; EF (TRZAS): efficacy, percentage reduction in the intensity of damage ([5]; dosage 25 g/ha): >5%"
COC(=O)c1c(O)ccc2c1CC(C)(c1ccccc1)O2 (centres unmarked) [I.1-16],,,>5,
COC(=O)c1c(O)ccc2c1CC(c1ccc3ccccc3c1)O2 (centres unmarked) [I.1-48],,,>5,"EF (ZEAMX): efficacy, percentage reduction in the intensity of damage ([1]; dosage 250 g/ha): >5%"
COC(=O)c1c(O)ccc2c1C(C)C(c1ccc(OC)cc1)O2 (centres unmarked) [I.1-20],,,>5,
COc1ccc(C2Cc3c(ccc(O)c3C(=O)O)O2)cc1 (centres unmarked) [I.2-4],,,,EF (BRSNS): efficacy = percentage reduction in the intensity of damage ([2]; dosage 250 g/ha): >5%
COC(=O)c1c(O)ccc2c1CC(c1ccc(OC)c(OC)c1)O2 (centres unmarked) [I.1-12],,>5,,EF (BRSNS): efficacy = percentage reduction in the intensity of damage ([2]; dosage 25 g/ha): >5%
COC(=O)c1c(O)ccc2c1CC(C)(c1ccc3ccccc3c1)O2 (centres unmarked) [I.1-49],,,>5,
"COC(=O)c1c(O)ccc2c1C(C)C(c1ccc(OC)c(OC)c1)O2 (centres unmarked) [I.1-21, Methyl 2-(3,4-dimethoxyphenyl)-5-hydroxy-3-methyl-2,3-dihydro-1-benzofuran-4-carboxylate]",,,,EF (BRSNS): efficacy = percentage reduction in the intensity of damage ([2]; dosage 25 g/ha): >5%
COC(=O)c1c(OS(=O)(=O)C(F)(F)F)ccc2c1CC(c1ccc(OC)cc1)O2 (centres unmarked) [I.16-4],>5,,,
"COC(=O)c1c(OC(=O)C2CCC2)ccc2c1CC(c1ccc(OC)cc1)O2 (centres unmarked) [I.6-4, Methyl 5-[(cyclobutylcarbonyl)oxy]-2-(4-methoxyphenyl)-2,3-dihydro-1-benzofuran-4-carboxylate]",,>5,,EF (BRSNS): efficacy = percentage reduction in the intensity of damage ([2]; dosage 25 g/ha): >5%
COC(=O)c1c(O)ccc2c1CC(c1ccc(OC(C)=O)cc1)O2 (centres unmarked) [I.1-40],>5,>5,,"EF (ZEAMX): efficacy, percentage reduction in the intensity of damage ([4]; dosage 25 g/ha): >5%; EF (TRZAS): efficacy, percentage reduction in the intensity of damage ([5]; dosage 25 g/ha): >5%"
COC(=O)c1c(O)ccc2c1CC(C)(c1ccc(C)cc1)O2 (centres unmarked) [I.1-44],>5,,>5,
CCOC(=O)c1c(O)ccc2c1C(C)C(c1ccc(OC)c(OC)c1)O2 (centres unmarked) [I.4-21],,,>5,
COC(=O)c1c(O)ccc2c1CC(c1ccc(OCc3ccccc3)c(OC)c1)O2 (centres unmarked) [I.1-35],>5,>5,,"EF (ZEAMX): efficacy, percentage reduction in the intensity of damage ([4]; dosage 25 g/ha): >5%; EF (TRZAS): efficacy, percentage reduction in the intensity of damage ([5]; dosage 25 g/ha): >5%; EF (BRSNS): efficacy = percentage reduction in the intensity of damage ([2]; dosage 25 g/ha): >5%"
